Results published in patent US6921545B2 (priority 2001, dated 2005).
Values joined by “and” are separate entries in the source; they are usually repeats but may differ in a detail not shown here. Equal values may be shown once. Where a name gives a salt, the structure may show the parent alone.

Tests used:
[1] = test system: Tribolium castaneum 30 live beetles and brood; settings: in vivo
[2] = test system: Ephestia kuehniella (50 eggs); settings: in vivo
[3] = test system: Sitophilus granarius (broodmixture); settings: in vivo
[4] = test system: Sitophilus granarius, Ephestia kuehniella eggs, Tribolium castaneum and brood; settings: in vivo
insect eggs = settings: in vivo; cited from earlier work

Row | Compound | minimum concentration for achieving an ovicidal action (insect eggs) [g/m^3] | further results
1 | O=S(=O)(F)F [SO2F2, sulfuryl fluoride] | – | Offspr. (offspring in the fumigation test) [1]: 3 beetles and 4 beetles and 5 beetles; Offspr. (offspring in the fumigation test) [2]: 0; Offspr. (offspring in the fumigation test) [3]: 0 beetles; offspring produced [4]: offspring were produced
2 | CC#N [acetonitrile] | 10 | –
3 | CN=C=S [methyl isothiocyanate] | 5 | –
4 | O=C=S [carbonyl sulfide] | 5 | –
5 | COC=O [methyl formate] | 20 | –
